System: Articular cartilage explants
Test: IL1β-induced glycosaminoglycan (GAG) release from 35S-labelled articular cartilage explants
Type: cell-based, cows
Conditions: polyphenolic compounds extracted e.g. from rosemary plants; qualitative statement
From the text: Articular cartilage explants are dissected out of the metacarpophalangeal joint of old cows (8-10 years). The skin is removed from the feet. The articulation is opened transversally. Intra articular ligaments are transected. Full thickness slices of cartilage are dissected out and put in a Petri dish containing DMEM supplemented with 20% FBS ([…]) and antibiotics (penicillin, streptomycin and gentamycin). Under the hood, disks of cartilage obtained by using a biopsy punch (6 mm in diameter) are distributed between the wells of a 96-wells plate containing 200 μl of medium (DMEM+20% FBS, 1% penicillin/streptomycin, 0.1% gentamycin) per well. Finally, plates are put into an incubator (37° C./5% CO2).
Five days after their harvest, the explants are divided into several different treatment conditions:
1—negative control: the wells contain only culture medium. 2—positive stimulatory control: Interleukin 1β(IL1β) is added to the media at the concentration of 50 ng per ml. This cytokine is used to stimulate the catabolism and to induce inflammation. 3—positive inhibitory control: d15-PGJ2 (a peroxisome proliferator activated receptor γ agonist) and hymenialdisine are co-added, to the medium, with IL1β, to counteract the catabolic effect of this cytokine (Sabatini M, et al. (2002) Osteoarthritis Cartilage 10(9): 673-679; Scher J U, et al. (2005) Clin Immunol 114(2): 100-109; Boyault S, et al. (2001) Febs Letters 501(1): 24-30) 4, 5, 6, 7, 8 (if present)—tested compounds: these conditions test the effects of three concentrations of a polyphenol in presence of IL1β.
The explants undergo these treatments for 72 hours in the incubator (37° C., 5% CO2). The following protocol is based on the disclosure of Campbell et al. (1984) Arch Biochem Biophys 234(1): 275-289 and Hascall V C, et al. (1983) ArchBiochem Biophys 224(1): 206-223 and was carried out 48 hours after the harvest of the explants,
Sulphur 35 (35S) was added to the medium to be incorporated into newly synthesized polysulfated glycosaminoglycans within the extracellular matrix of the explants. After 72 hours, several washes were performed to eliminate the non-incorporated radioactivity. The explants were then treated for 72 hours, after which the supernatants were collected and the amount of radioactivity released in the medium was measured with a beta counter, as a marker of glycosaminoglycan (GAG) catabolism. The radioactivity present in the explants was also measured and used to normalize the amount of radioactivity released in the media. The radioactivity was expressed in DPM ([…]) and the GAG release was assessed by the following formula:
GAG release=radioactivity in the supernatants/(radioactivity in the supernatants+radioactivity in the explants)

Row | Structure (SMILES) | anti-catabolic potential
1 | COc1c(O)cc2oc(-c3ccc(O)c(O)c3)cc(=O)c2c1O [6-methoxy-luteolin] | anti-catabolic potential
2 | COc1c(OC2OC(COC(=O)C=Cc3ccc(O)cc3)C(O)C(O)C2O)cc2oc(-c3ccc(O)c(O)c3)cc(=O)c2c1O (stereo not shown) [6″-Coumaroylnepitrin] | anti-catabolic potential
3 | COc1cc(C=CC(=O)OCC2OC(Oc3cc4oc(-c5ccc(O)c(O)c5)cc(=O)c4c(O)c3OC)C(O)C(O)C2O)ccc1O (stereo not shown) [6″-Feruloylnepitrin] | anti-catabolic potential
4 | CC(C)c1cc2c(c(O)c1O)C13CCCC(C)(C)C1C(OC3=O)C2O (stereo not shown) [7-epirosmannol] | anti-catabolic potential
5 | CC(C)c1cc2c(c(O)c1O)[C@@]13CCCC(C)(C)[C@@H]1C[C@@H]2OC3=O [carnosol] | anti-catabolic potential
6 | COc1cc2oc(-c3ccc(O)cc3)cc(=O)c2c(O)c1OC [cirsimaritin] | anti-catabolic potential
7 | O=c1c(O)c(-c2ccc(O)cc2)oc2cc(O)cc(O)c12 [kaempferol] | anti-catabolic potential
8 | O=c1cc(-c2ccc(O)c(O)c2)oc2cc(O)cc(O)c12 [luteolin] | anti-catabolic potential
9 | CC(C)c1cc2c(c(O)c1O)[C@@]13CCCC(C)(C)[C@@H]1[C@H](OC3=O)[C@H]2O [rosmanol] | anti-catabolic potential
10 | O=C(/C=C/c1ccc(O)c(O)c1)O[C@H](Cc1ccc(O)c(O)c1)C(=O)O [rosmarinic acid] | anti-catabolic potential
